Experimental data reported in patent US4346087A, “Antibacterial surface active agent containing azaalkenelactam” (priority 1979, dated 1982).
Values after ≈ are worked out from the molar mass of the structure shown. Like-named read-outs stand apart in the source and are kept apart here.

Key:
Assay type in all cases: cell-based
Escherichia coli NIHJ = assay: MIC against Escherichia coli NIHJ; settings: Escherichia coli
Description: (§1) Below are described the antibacterial activities of the compounds in the compositions according to this invention.
(§2) The testing method complied with the standard method of Japan Sociaty of Chemotherapy.

[1] = tested on: Staphylococcus aureus FDA 209P; assay: MIC against Staphylococcus aureus FDA 209P; settings: Staphylococcus aureus, FDA209P
Description: as §1, §2

[2] = tested on: Desulfovibrio desulfuricans IFO 13699; assay: MIC against Desulfovibrio desulfuricans; settings: Desulfovibrio desulfuricans
Description: as §1, §2

[3] = Table 2, derivatives having a carboxylate radical, heart infusion agar, 37° C., 24 hours, read-out: MIC

Structure (SMILES) | MIC (Escherichia coli NIHJ; 24 h) [µg/mL] | MIC ([1]; 24 h) [µg/mL] | MIC ([2]; IFO13699, 24 h) [µg/mL] | MIC (Escherichia coli NIHJ; [3]) [µg/mL] | MIC ([2]; IFO13699, Table 2, derivatives having a carboxylate radical, heart infusion agar, 37° C., 24 hours, read-out: MIC) [µg/mL] | MIC [1, 3] [µg/mL]
CCCCCCCCCCCCCCNCCN1CCC[N+](C(C)C(=O)[O-])=CC(C)(C)C1=O (stereo not drawn) [1-tetradecylaminoethyl-3,3-dimethyl-1-aza-5-azoniacyclooct-4-en-2-one-5-propionate] | 100 (≈ 215 µM) | 12.5 (≈ 26.8 µM) | 6.25 (≈ 13.4 µM) |  |  | 
CCCCCCCCCCCCCCNCCN1CCC[N+](C(C)C(=O)[O-])=CC(C)C1=O (stereo not drawn) [1-tetradecylaminoethyl-3-methyl-1-aza-5-azoniacyclooct-4-en-2-one-5-propionate] | 100 (≈ 221 µM) | 6.25 (≈ 13.8 µM) | 6.25 (≈ 13.8 µM) |  |  | 
CCCCCCCCCCC(O)CN1CC[N+](CC(=O)[O-])=CC(C)C1=O (stereo not drawn) [4-(2-hydroxy)dodecyl-6-methyl-1-azonia-4-azacyclohept-7-en-5-one-1-acetate] |  | 25 (≈ 67.8 µM) | 25 (≈ 67.8 µM) | 800 (≈ 2170 µM) |  | 
CCCCCCCCCCC(O)CN1CC[N+](CC(=O)[O-])=C(C)CC1=O (stereo not drawn) [4-(2-hydroxy)dodecyl-7-methyl-1-azonia-4-azacyclohept-7-en-5-one-1-acetate] | 200 (≈ 543 µM) | 100 (≈ 271 µM) | 6.25 (≈ 17 µM) |  |  | 
CCCCCCCCCCCCCCC(O)CNCCN1CC[N+](CC(=O)[O-])=CCCC1=O (stereo not drawn) [4-(2-hydroxyhexadecyl)aminoethyl-4-aza-1-azoniacyclooct-8-en-5-one-1-acetate] | 100 (≈ 214 µM) | 12.5 (≈ 26.7 µM) | 6.25 (≈ 13.4 µM) |  |  | 
CCCCCCCCCCCCCCC(O)CNCCN1CC[N+](CC(=O)[O-])=CC(C)(C)C1=O (stereo not drawn) [4-(2-hydroxyhexadecyl)aminoethyl-6,6-dimethyl-1-azonia-4-azacyclohept-7-en-5-one-1-acetate] | 200 (≈ 415 µM) | 12.5 (≈ 25.9 µM) | 6.25 (≈ 13 µM) |  |  | 
CCCCCCCCCCCCCCC(O)CNCCN1CC[N+](CC(=O)[O-])=CCC(C)C1=O (stereo not drawn) [4-(2-hydroxyhexadecyl)aminoethyl-6-methyl-4-aza-1-azoniacyclooct-8-en-5-one-1-acetate] | 100 (≈ 208 µM) | 25 (≈ 51.9 µM) | 25 (≈ 51.9 µM) |  |  | 
CCCCCCCCCCCCCCC(O)CNCCN1CC[N+](CC(=O)[O-])=C(C)CC1=O (stereo not drawn) [4-(2-hydroxyhexadecyl)aminoethyl-7-methyl-1-azonia-4-azacyclohept-7-en-5-one-1-acetate] | 50 (≈ 107 µM) | 25 (≈ 53.5 µM) |  |  | 3.12 (≈ 6.67 µM) | 
CCCCCCCCCCCCC(O)CNCCN1CC[N+](CC(=O)[O-])=C(C)CC1=O (stereo not drawn) [4-(2-hydroxytetradecyl)aminoethyl-7-methyl-1-azonia-4-azacyclohept-7-en-5-one-1-acetate] | 100 (≈ 227 µM) | 50 (≈ 114 µM) | 12.5 (≈ 28.4 µM) |  |  | 
CCCCCCCCC=CCCCCCCCCN1CC[N+](CC(=O)[O-])=CCCC1=O [4-(9-octadecenyl)-4-aza-1-azoniacyclooct-8-en-5-one-1-acetate] | 400 (≈ 920 µM) | 200 (≈ 460 µM) | 50 (≈ 115 µM) |  |  | 
CCCCCCCCCCCCCCCCCCCCCC(=O)OCCN1CC[N+](CC(=O)[O-])=CCCC1=O [4-behenoyloxyethyl-4-aza-1-azoniacyclooct-8-en-5-one-1-acetate] | 200 (≈ 363 µM) | 100 (≈ 182 µM) | 12.5 (≈ 22.7 µM) |  |  | 
CCCCCCCCCCCCCCCCCCCCCCNCCN1CC[N+](CC(=O)[O-])=C(C)CC1=O [4-docosylaminoethyl-7-methyl-1-azonia-4-azacyclohept-7-en-5-one-1-acetate] |  | 12.5 (≈ 23.3 µM) | 12.5 (≈ 23.3 µM) | 3200 (≈ 5970 µM) |  | 
CCCCCCCCCCCCOCCNCCN1CC[N+](CC(=O)[O-])=C(C)CC1=O [4-dodecoxyaminoethyl-7-methyl-1-azonia-4-azacyclohept-7-en-5-one-1-acetate] | 200 (≈ 455 µM) | 25 (≈ 56.9 µM) | 25 (≈ 56.9 µM) |  |  | 
CCCCCCCCCCCCN1CC[N+](CC(=O)[O-])=CC(C)C1=O (stereo not drawn) [4-dodecyl-6-methyl-1-azonia-4-azacyclohept-7-en-5-one-1-acetate] |  | 25 (≈ 70.9 µM) | 25 (≈ 70.9 µM) | 800 (≈ 2270 µM) |  | 
CCCCCCCCCCCCN1CC[N+](CC(=O)[O-])=C(C)CC1=O [4-dodecyl-7-methyl-1-azonia-4-azacyclohept-7-en-5-on-1-acetate] |  | 50 (≈ 142 µM) | 12.5 (≈ 35.5 µM) | 3200 (≈ 9080 µM) |  | 
CCCCCCCCCCCCNCCN1CC[N+](CC(=O)[O-])=C(C)CC1=O [4-dodecylaminoethyl-7-methyl-1-azonia-4-azacyclohept-7-en-5-one-1-acetate] | 100 (≈ 253 µM) | 50 (≈ 126 µM) | 12.5 (≈ 31.6 µM) |  |  | 
CCCCCCCCCCCCNCCNCCN1CC[N+](CC(=O)[O-])=C(C)CC1=O [4-dodecylaminoethylaminoethyl-1-azonia-4-azacyclohept-7-en-5-one-1-acetate] | 100 (≈ 228 µM) | 12.5 (≈ 28.5 µM) | 6.25 (≈ 14.2 µM) |  |  | 
CCCCCCCCCCCCCCCCN1CC[N+](CC(=O)[O-])=C(C)CC1=O [4-hexadecyl-7-methyl-1-azonia-4-azacyclohept-7-en-5-one-1-acetate] |  | 100 (≈ 245 µM) | 12.5 (≈ 30.6 µM) | 3200 (≈ 7830 µM) |  | 

Structure (SMILES) | MIC (Escherichia coli NIHJ; 24 h) [µg/mL] | MIC ([1]; 24 h) [µg/mL] | MIC ([2]; IFO13699, 24 h) [µg/mL] | MIC (Escherichia coli NIHJ; [3]) [µg/mL] | MIC ([2]; IFO13699, Table 2, derivatives having a carboxylate radical, heart infusion agar, 37° C., 24 hours, read-out: MIC) [µg/mL] | MIC [1, 3] [µg/mL]
CCCCCCCCCCCC(=O)NCCN1CC[N+](CC(=O)[O-])=CC(C)C1=O (stereo not drawn) [4-lauramidoethyl-6-methyl-1-azonia-4-azacyclohept-7-en-5-one-1-acetate] | 50 (≈ 122 µM) | 12.5 (≈ 30.5 µM) | 6.25 (≈ 15.3 µM) |  |  | 
CCCCCCCCCCCC(=O)OCCN1CC[N+](CC(=O)[O-])=CC(C)C1=O (stereo not drawn) [4-lauroyloxyethyl-6-methyl-1-azonia-4-azacyclohept-7-en-5-one-1-acetate] | 200 (≈ 487 µM) | 50 (≈ 122 µM) | 50 (≈ 122 µM) |  |  | 
CCCCCCCCCCCC(=O)OCCN1CC[N+](CC(=O)[O-])=C(C)CC1=O [4-lauroyloxyethyl-7-methyl-1-azonia-4-azacyclohept-7-en-5-one-1-acetate] |  | 400 (≈ 974 µM) | 25 (≈ 60.9 µM) | 3200 (≈ 7790 µM) |  | 
CC1=[N+](CC(=O)[O-])CCN(CC(C)OCC(C)OCC(C)OCc2ccc(C)cc2)C(=O)C1 (stereo not drawn) [4-methylbenzylpoly(2 moles)oxypropyleneoxypropyl-7-methyl-1-azonia-4-azacyclohept-7-en-5-one-1-acetate] | 400 (≈ 865 µM) | 50 (≈ 108 µM) | 50 (≈ 108 µM) |  |  | 
CCCCCCCCCc1ccc(OCC(O)CNCCNCCNCCN2CC[N+](CC(=O)[O-])=CC(C)C2=O)cc1 (stereo not drawn) [4-nonylphenoxy(2-hydroxy)propylaminoethylaminoethylaminoethyl-6-methyl-1-azonia-4-azacyclohept-7-en-5-one-1-acetate] | 400 (≈ 678 µM) | 200 (≈ 339 µM) | 50 (≈ 84.8 µM) |  |  | 
CCCCCCCCCc1ccc(OCC(O)CNCCNCCNCCN2CC[N+](CC(=O)[O-])=CCC(C)C2=O)cc1 (stereo not drawn) [4-nonylphenoxy(2-hydroxy)propylaminoethylaminoethylaminoethyl-6-methyl-4-aza-1-azoniacyclooct-8-en-5-one-1-acetate] | 400 (≈ 662 µM) | 200 (≈ 331 µM) | 50 (≈ 82.8 µM) |  |  | 
CCCCCCCCCc1ccc(OCC(O)CNCCNCCNCCN2CC[N+](CC(=O)[O-])=C(C)CC2=O)cc1 (stereo not drawn) [4-nonylphenoxy(2-hydroxy)propylaminoethylaminoethylaminoethyl-7-methyl-1-azonia-4-azacyclohept-7-en-5-one-1-acetate] |  | 100 (≈ 170 µM) | 50 (≈ 84.8 µM) | 800 (≈ 1360 µM) |  | 
CCCCCCCC(=O)NCCN1CC[N+](C(C)C(=O)[O-])=CCCC1=O (stereo not drawn) [4-octamidoethyl-4-aza-1-azoniacyclooct-8-en-5-one-1-propionate] | 200 (≈ 544 µM) | 400 (≈ 1090 µM) | 50 (≈ 136 µM) |  |  | 
CCCCCCCC(=O)NCCN1CC[N+](CC(=O)[O-])=C(C)CC1=O [4-octamidoethyl-7-methyl-1-azonia-4-azacyclohept-7-en-5-one-1-acetate] | 100 (≈ 283 µM) |  | 50 (≈ 141 µM) |  |  | 800 (≈ 2260 µM)
CCCCCCCCOCCCN1CC[N+](CC(=O)[O-])=C(C)CC1=O [4-octoxypropyl-7-methyl-1-azonia-4-azacyclohept-7-en-5-one-1-acetate] |  | 50 (≈ 141 µM) | 50 (≈ 141 µM) | 1600 (≈ 4510 µM) |  | 
CCCCCCCC(=O)OCCN1CC[N+](CC(=O)[O-])=C(C)CC1=O [4-octoyloxyethyl-7-methyl-1-azonia-4-azacyclohept-7-en-5-one-1-acetate] |  |  | 50 (≈ 141 µM) | 3200 (≈ 9030 µM) |  | 800 (≈ 2260 µM)
CCCCCCCC/C=C\CCCCCCCC(=O)NCCN1CC[N+](CC(=O)[O-])=C(C)CC1=O [4-oleamidoethyl-7-methyl-1-azonia-4-azacyclohept-7-en-5-one-1-acetate] |  | 25 (≈ 50.8 µM) | 12.5 (≈ 25.4 µM) | 3200 (≈ 6510 µM) |  | 
CCCCCCCC/C=C\CCCCCCCC(=O)OCCN1CC[N+](CC(=O)[O-])=C(C)CC1=O [4-oleoyloxyethyl-7-methyl-1-azonia-4-azacyclohept-7-en-5-one-1-acetate] |  | 200 (≈ 406 µM) | 25 (≈ 50.7 µM) | 3200 (≈ 6490 µM) |  | 
CCCCCCCCOCCCN1CC[N+](CC(=O)[O-])=CC(C)(C)C1=O [4-oxtoxypropyl-6,6-dimethyl-1-azonia-4-azacyclohept-7-en-5-one-1-acetate] |  | 200 (≈ 543 µM) | 50 (≈ 136 µM) | 800 (≈ 2170 µM) |  | 
CCCCCC[C@@H](O)C/C=C\CCCCCCCC(=O)NCCN1CC[N+](CC(=O)[O-])=CC(C)(C)C1=O [4-ricinolamidoethyl-6,6-dimethyl-1-azonia-4-azacyclohept-7-en-5-one-1-acetate] |  | 400 (≈ 767 µM) | 50 (≈ 95.8 µM) | 1600 (≈ 3070 µM) |  | 
CCCCCCCCCCCCCCNCCN1CC[N+](CC(=O)[O-])=CCCC1=O [4-tetradecylaminoethyl-4-aza-1-azoniacyclooct-8-en-5-one-1-acetate] | 100 (≈ 236 µM) |  | 6.25 (≈ 14.8 µM) |  |  | 3.12 (≈ 7.36 µM)
CCCCCCCCCCCCCCNCCN1CC[N+](C(C)C(=O)[O-])=CC(C)(C)C1=O (stereo not drawn) [4-tetradecylaminoethyl-6,6-dimethyl-1-azonia-4-azacyclohept-7-en-5-one-1-propionate] | 100 (≈ 221 µM) | 6.25 (≈ 13.8 µM) | 6.25 (≈ 13.8 µM) |  |  | 
CCCCCCCCCCCCCCNCCN1CC[N+](CC(=O)[O-])=CC(C)C1=O (stereo not drawn) [4-tetradecylaminoethyl-6-methyl-1-azonia-4-azacyclohept-7-en-5-one-1-acetate] | 100 (≈ 236 µM) | 6.25 (≈ 14.8 µM) | 6.25 (≈ 14.8 µM) |  |  | 
